Test results reported in patent US20260250318A1, “COMPOSITIONS AND METHODS FOR CROSSING THE BLOOD BRAIN BARRIER” (VOYAGER THERAPEUTICS, INC., priority 2022, published 2026).

How the values were obtained:
Conditions in all cases: synthetic library passage 3, intravenous, relative to wild-type AAV9
[1] = tested on: brain, spinal cord, and DRG of the NHPs; assay: NGS fold enrichment of synthetic library (passage 3) in NHPs, first cross-species screen; assay type: in vivo, cynomolgus macaques (Macaca fascicularis)
Procedure, shortened: (§1)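 Fold enrichment versus wild-type AAV9 was derived by NGS of RT-PCR-amplified RNA from nervous tissue, collected e.g. 28 days after IV dosing […]. The library (passage 3) was given to two NHPs aged 2-4 years and to 6-8-week BALB/c and C57Bl/6 mice (n=3 each).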

brain [2] = assay: NGS fold enrichment of synthetic library (passage 3) in BALB/c mice, first cross-species screen; assay type: in vivo
Procedure, shortened: as §1

brain [3] = assay: NGS fold enrichment of synthetic library (passage 3) in C57Bl/6 mice, first cross-species screen; assay type: in vivo
Procedure, shortened: as §1

[4] = RNA from spinal cord of NHPs, NGS
[5] = RNA from brain of BALB/c mice, NGS
[6] = RNA from brain of C57Bl/6 mice, NGS

## GSGQDRHIVQNQQT
[1]; RNA NGS, brain of NHPs
  Fold enrichment over AAV9 in the brain of NHPs: 1.527 fold
[1]; RNA NGS, spinal cord of NHPs
  Fold enrichment over AAV9 in the spinal cord of NHPs: 11.068 fold
Brain [2]; RNA NGS, brain of BALB/c mice
  Fold enrichment over AAV9 in the brain of Mice (BALB/c): 0.162 fold
Brain [3]; RNA NGS, brain of C57Bl/6 mice
  Fold enrichment over AAV9 in the brain of Mice (C57Bl/6): 0.285 fold

## GSGQMQSAGSNQQT
[1]; RNA NGS, brain of NHPs
  Fold enrichment over AAV9 in the brain of NHPs: 1.482 fold
[1]; RNA NGS, spinal cord of NHPs
  Fold enrichment over AAV9 in the spinal cord of NHPs: 0.116 fold
Brain [2]; RNA NGS, brain of BALB/c mice
  Fold enrichment over AAV9 in the brain of Mice (BALB/c): 1.128 fold
Brain [3]; RNA NGS, brain of C57Bl/6 mice
  Fold enrichment over AAV9 in the brain of Mice (C57Bl/6): 1.034 fold

## GLAHKTSSGQNQQT
[1]; RNA NGS, brain of NHPs
  Fold enrichment over AAV9 in the brain of NHPs: 1.106 fold
[1]; RNA NGS, spinal cord of NHPs
  Fold enrichment over AAV9 in the spinal cord of NHPs: 0.915 fold
Brain [2]; RNA NGS, brain of BALB/c mice
  Fold enrichment over AAV9 in the brain of Mice (BALB/c): 0.690 fold
Brain [3]; RNA NGS, brain of C57Bl/6 mice
  Fold enrichment over AAV9 in the brain of Mice (C57Bl/6): 0.427 fold

## GSLGNLQRGQNQQT
[1]; RNA NGS, brain of NHPs
  Fold enrichment over AAV9 in the brain of NHPs: 1.003 fold
[1]; RNA NGS, spinal cord of NHPs
  Fold enrichment over AAV9 in the spinal cord of NHPs: 0.895 fold
Brain [2]; RNA NGS, brain of BALB/c mice
  Fold enrichment over AAV9 in the brain of Mice (BALB/c): 0.385 fold
Brain [3]; RNA NGS, brain of C57Bl/6 mice
  Fold enrichment over AAV9 in the brain of Mice (C57Bl/6): 0.947 fold

## GSGLLYHDQQNQQT
[1]; RNA NGS, brain of NHPs
  Fold enrichment over AAV9 in the brain of NHPs: 1.565 fold
[1]; RNA NGS, spinal cord of NHPs
  Fold enrichment over AAV9 in the spinal cord of NHPs: 2.760 fold
Brain [2]; RNA NGS, brain of BALB/c mice
  Fold enrichment over AAV9 in the brain of Mice (BALB/c): 0.107 fold
Brain [3]; RNA NGS, brain of C57Bl/6 mice
  Fold enrichment over AAV9 in the brain of Mice (C57Bl/6): 0.405 fold

## GSGNMHASRQNQQT
[1]; RNA from brain of NHPs, NGS
  Fold enrichment over AAV9 in the brain of NHPs: 1.238 fold
[1]; [4]
  Fold enrichment over AAV9 in the spinal cord of NHPs: 3.878 fold
Brain [2]; [5]
  Fold enrichment over AAV9 in the brain of Mice (BALB/c): 0.687 fold
Brain [3]; [6]
  Fold enrichment over AAV9 in the brain of Mice (C57Bl/6): 0.782 fold

## GSGQNQQLKNSTST
[1]; RNA from brain of NHPs, NGS
  Fold enrichment over AAV9 in the brain of NHPs: 1.235 fold
[1]; [4]
  Fold enrichment over AAV9 in the spinal cord of NHPs: 1.703 fold
Brain [2]; [5]
  Fold enrichment over AAV9 in the brain of Mice (BALB/c): 0.538 fold
Brain [3]; [6]
  Fold enrichment over AAV9 in the brain of Mice (C57Bl/6): 1.063 fold

## GSGQNQQPNSGSMT
[1]; RNA NGS, brain of NHPs
  Fold enrichment over AAV9 in the brain of NHPs: 1.064 fold
[1]; RNA NGS, spinal cord of NHPs
  Fold enrichment over AAV9 in the spinal cord of NHPs: 0.925 fold
Brain [2]; RNA NGS, brain of BALB/c mice
  Fold enrichment over AAV9 in the brain of Mice (BALB/c): 0.339 fold
Brain [3]; RNA NGS, brain of C57Bl/6 mice
  Fold enrichment over AAV9 in the brain of Mice (C57Bl/6): 0.588 fold

## GSGQNAQQAAAQQT
[1]; RNA NGS, brain of NHPs
  Fold enrichment over AAV9 in the brain of NHPs: 1.568 fold
[1]; RNA NGS, spinal cord of NHPs
  Fold enrichment over AAV9 in the spinal cord of NHPs: 4.239 fold
Brain [2]; RNA NGS, brain of BALB/c mice
  Fold enrichment over AAV9 in the brain of Mice (BALB/c): 0.604 fold
Brain [3]; RNA NGS, brain of C57Bl/6 mice
  Fold enrichment over AAV9 in the brain of Mice (C57Bl/6): 0.937 fold

## GSGQTHGGQHNQQT
[1]; RNA NGS, brain of NHPs
  Fold enrichment over AAV9 in the brain of NHPs: 2.125 fold
[1]; RNA NGS, spinal cord of NHPs
  Fold enrichment over AAV9 in the spinal cord of NHPs: 12.251 fold
Brain [2]; RNA NGS, brain of BALB/c mice
  Fold enrichment over AAV9 in the brain of Mice (BALB/c): 1.098 fold
Brain [3]; RNA NGS, brain of C57Bl/6 mice
  Fold enrichment over AAV9 in the brain of Mice (C57Bl/6): 1.448 fold

## GSGQNQQVIQGSNT
[1]; RNA NGS, brain of NHPs
  Fold enrichment over AAV9 in the brain of NHPs: 2.521 fold
[1]; RNA NGS, spinal cord of NHPs
  Fold enrichment over AAV9 in the spinal cord of NHPs: 8.778 fold
Brain [2]; RNA NGS, brain of BALB/c mice
  Fold enrichment over AAV9 in the brain of Mice (BALB/c): 0.810 fold
Brain [3]; RNA NGS, brain of C57Bl/6 mice
  Fold enrichment over AAV9 in the brain of Mice (C57Bl/6): 0.935 fold

## GSGQNQGLLSSPQT
[1]; RNA from brain of NHPs, NGS
  Fold enrichment over AAV9 in the brain of NHPs: 1.164 fold
[1]; [4]
  Fold enrichment over AAV9 in the spinal cord of NHPs: 0.000 fold
Brain [2]; [5]
  Fold enrichment over AAV9 in the brain of Mice (BALB/c): 0.417 fold
Brain [3]; [6]
  Fold enrichment over AAV9 in the brain of Mice (C57Bl/6): 0.707 fold

## GLHGMTLSGQNQQT
[1]; RNA from brain of NHPs, NGS
  Fold enrichment over AAV9 in the brain of NHPs: 1.226 fold
[1]; [4]
  Fold enrichment over AAV9 in the spinal cord of NHPs: 3.552 fold
Brain [2]; [5]
  Fold enrichment over AAV9 in the brain of Mice (BALB/c): 0.338 fold
Brain [3]; [6]
  Fold enrichment over AAV9 in the brain of Mice (C57Bl/6): 0.470 fold

## GSGQNQQTSLQDQT
[1]; RNA NGS, brain of NHPs
  Fold enrichment over AAV9 in the brain of NHPs: 2.505 fold
[1]; RNA NGS, spinal cord of NHPs
  Fold enrichment over AAV9 in the spinal cord of NHPs: 0.500 fold
Brain [2]; RNA NGS, brain of BALB/c mice
  Fold enrichment over AAV9 in the brain of Mice (BALB/c): 0.968 fold
Brain [3]; RNA NGS, brain of C57Bl/6 mice
  Fold enrichment over AAV9 in the brain of Mice (C57Bl/6): 0.315 fold

## GSGQNQQHHSSHTT
[1]; RNA from brain of NHPs, NGS
  Fold enrichment over AAV9 in the brain of NHPs: 1.328 fold
[1]; [4]
  Fold enrichment over AAV9 in the spinal cord of NHPs: 2.158 fold
Brain [2]; [5]
  Fold enrichment over AAV9 in the brain of Mice (BALB/c): 0.452 fold
Brain [3]; [6]
  Fold enrichment over AAV9 in the brain of Mice (C57Bl/6): 0.957 fold

## GPGSAHSSGQNQQT
[1]; RNA NGS, brain of NHPs
  Fold enrichment over AAV9 in the brain of NHPs: 1.785 fold
[1]; RNA NGS, spinal cord of NHPs
  Fold enrichment over AAV9 in the spinal cord of NHPs: 4.392 fold
Brain [2]; RNA NGS, brain of BALB/c mice
  Fold enrichment over AAV9 in the brain of Mice (BALB/c): 0.872 fold
Brain [3]; RNA NGS, brain of C57Bl/6 mice
  Fold enrichment over AAV9 in the brain of Mice (C57Bl/6): 1.099 fold
